Read-outs that look alike come from different tables or passages of the source.
What was measured:
[1] = In vivo pharmacokinetic and bioavailability experiments of rats; parameters: species or system SD rats; conditions: for pharmacokinetic parameter, overall judgement: hydrochlorides, in words; for bioavailability: po, 25 mg/kg, read-out: F (oral bioavailability)
Experimental: Pharmacokinetic and bioavailability experiments of rats. SD rats were administered orally (25 mg/kg) and intravenously (2.5 to 5 mg/kg) at a single dose. Animal blood samples were taken at appropriate time points after administration, heparin was added as anticoagulant, and same were centrifuged at 8000 rpm/min for 6 minutes, the supernatant was then taken and stored at −20° C. for HPLC-MS analysis. The proteins in blood samples were precipitated with acetonitrile at 12000 rpm for 10 min, and the supernatant was used for HPCL-MS analysis. Data were fit using DAS2.0 to obtain compartmental model and non-compartmental model parameters, respectively. The oral bioavailability of each compound was calculated according to AUC data.

[2] = biological target: T1, FLT-3 kinase domain recombinant protein (Homo sapiens, UniProt P36888); assay: Inhibition rate on FLT3 kinase (ELISA); type: biochemical; conditions: two values per compound; for inhibition at 0.01 µM / inhibition at 0.1 µM / inhibition at 1 µM: read-out: Inhibition rate (%) against receptor tyrosine kinase FLT-3
T1 construct: 50 μL FLT-3 kinase domain recombinant protein diluted with reaction buffer to initiate the reaction
T1 sequence (P36888 610-943 limits assumed): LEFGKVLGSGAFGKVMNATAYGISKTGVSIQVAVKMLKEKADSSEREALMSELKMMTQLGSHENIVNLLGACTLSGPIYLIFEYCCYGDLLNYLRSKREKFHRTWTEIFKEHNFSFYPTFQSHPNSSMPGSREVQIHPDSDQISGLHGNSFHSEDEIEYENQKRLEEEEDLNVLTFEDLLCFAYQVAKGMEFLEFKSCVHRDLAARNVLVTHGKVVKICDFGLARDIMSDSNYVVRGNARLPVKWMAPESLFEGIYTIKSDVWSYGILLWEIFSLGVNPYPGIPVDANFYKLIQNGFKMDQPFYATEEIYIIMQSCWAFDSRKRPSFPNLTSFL
Method in brief: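 Recombinant FLT-3 kinase domain phosphorylated coated Poly(Glu,Tyr) 4:1 with ATP in HEPES pH 7.4 buffer with MgCl2, MnCl2, Na3VO4, DTT, 1 h at 37 °C; 1% DMSO final. Phosphotyrosine detected with PY99 and HRP anti-mouse antibody, OPD development, absorbance at 490 nm.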

[3] = Sprague-Dawley, rat, plasma, SD rats, Po, 25 mg/kg single dose
[4] = Sprague-Dawley, rat, plasma, SD rats, Po, 25 mg/kg single dose, read-out: Cmax
[5] = Sprague-Dawley, rat, plasma, SD rats, iv, 5 mg/kg single dose
[6] = Sprague-Dawley, rat, plasma, SD rats, iv, 5 mg/kg single dose, read-out: Cmax
[7] = SD rats, Po, 25 mg/kg single dose
[8] = SD rats, iv, 2.5 mg/kg single dose

Row | SMILES | pharmacokinetic parameter, overall judgement ([1]; SD rats) | bioavailability ([1]; Sprague-Dawley, rat, plasma) [%] | AUC(0-inf) [1, 3] [ng·h/mL] | AUC(0-t) [1, 3] [ng·h/mL] | half-life [1, 3] [h] | Cmax [1, 4] [ng/mL] | AUC(0-inf) [1, 5] [ng·h/mL] | AUC(0-t) [1, 5] [ng·h/mL] | clearance [1, 5] [mL/min/kg] | half-life [1, 5] [h] | Cmax [1, 6] [ng/mL] | Inhibition rate (%) against receptor tyrosine kinase FLT-3 ([2]; compound 10 nM, 0.01 µM) [%] | inhibition at 0.01 µM ([2]; compound 10 nM) [%] | Inhibition rate (%) against receptor tyrosine kinase FLT-3 ([2]; compound 100 nM, 0.1 µM) [%] | inhibition at 0.1 µM ([2]; compound 100 nM) [%] | Inhibition rate (%) against receptor tyrosine kinase FLT-3 ([2]; compound 1000 nM, 1 µM) [%] | inhibition at 1 µM ([2]; compound 1000 nM) [%] | AUC(0-∞) [1, 7] [ng·h/mL] | Cmax [1, 7] [ng/mL] | T1/2 [1, 7] [h] | other results
1 | CCc1ccc2c(c1)c(=O)c(C(=O)Nc1ccc(Oc3ncnc4cc(OCCCN5CCOCC5)c(OC)cc34)c(F)c1)c(C)n2C [GDL5000123, 6-ethyl-N-(3-fluoro-4-((6-methoxy-7-(3-morpholinopropoxy)quinazolin-4-yl)oxy)phenyl)-1,2-dimethyl-4-oxo-1,4-dihydroquinoline-3-carboxamide] | appropriate pharmacokinetic parameter | 23.5 | 118000 | 51500 | 26.7 | 3080 | 47700 | 43800 | 1.83 | 6.7 | 6480 | 74.8 | 75.4 | 83.8 | 89.3 | 97.4 | 104 |  |  |  | 
2 | CCc1ccc2c(c1)c(=O)c(C(=O)Nc1ccc(Oc3ncnc4cc(OCCN(C)C)c(OC)cc34)c(F)c1)c(C)n2C [GDL5000128, N-(4-(7-(2-(dimethylamino)ethoxy)-6-methoxyquinazolin-4-yloxy)-3-fluorophenyl)-6-ethyl-1,2-dimethyl-4-oxo-1,4-dihydroquinoline-3-carboxamide] | appropriate pharmacokinetic parameter | 44.3 | 25600 | 25100 | 4.59 | 4630 | 11600 | 11300 | 7.5 | 5.82 | 16800 | 71.7 | 59.1 | 79.5 | 75.4 |  | 87.9 |  |  |  | 
3 | CCc1ccc2c(c1)c(=O)c(C(=O)Nc1ccc(Oc3ncnc4cc(OCCCN5CCN(C)CC5)c(OC)cc34)c(F)c1)c(C)n2C [GDL5000138, 6-ethyl-N-(3-fluoro-4-(6-methoxy-7-(3-(4-methylpiperazin-1-yl)propoxy)quinazolin-4-yloxy)phenyl)-1,2-dimethyl-4-oxo-1,4-dihydroquinoline-3-carboxamide] | appropriate pharmacokinetic parameter | 27.5 | 31300 | 11300 | 34.8 | 656 | 8530 | 8220 | 9.83 | 5.72 | 3560 | 66.4 | 67.7 | 83.0 | 81.5 | 98.1 | 98 |  |  |  | 
4 | CCc1ccc2c(c1)c(=O)c(C(=O)Nc1ccc(Oc3ncnc4[nH]cc(-c5ccccc5)c34)c(F)c1)c(C)n2C [TL4800075, 6-ethyl-N-(3-fluoro-4-((5-phenyl-7H-pyrrolo[2,3-d]pyrimidin-4-yl)oxy)phenyl)-1,2-dimethyl-4-oxo-1,4-dihydroquinoline-3-carboxamide] |  | 1.23 |  | 371 |  |  |  |  |  |  |  | 41.9 | 48.7 | 70.4 | 76.3 | 80.7 | 86.6 | 505.71 | 121.74 | 3.72 | AUC(0-∞) [1, 8]: 3029.64 ng·h/mL; CL [1, 8]: 13.8 mL/min/kg; Cmax [1, 8]: 2910.13 ng/mL; T1/2 [1, 8]: 0.87 h; AUC(0-t) ([1]; Sprague-Dawley, rat, plasma, SD rats, iv, 2.5 mg/kg single dose): 3020 ng·h/mL
5 | CCc1ccc2c(c1)c(=O)c(C(=O)Nc1ccc(Oc3ncnc4cc(OC)c(OC)cc34)c(F)c1)c(C)n2C [TL4800191, N-(4-(6,7-dimethoxyquinazolin-4-yloxy)-3-fluorophenyl)-6-ethyl-1,2-dimethyl-4-oxo-1,4-dihydroquinoline-3-carboxamide] |  |  |  | 31300 |  |  | 42300 | 30500 | 1.67 | 25.2 | 1170 | 67.0 | 70.7 | 77.1 | 86.4 | 83.2 | 84.7 | 31505 | 1967 | 10.2 | F (oral bioavailability) ([1]; SD rats, Po 25 mg/kg vs iv 2.5 to 5 mg/kg, calculated according to AUC data): 14.9%; CL [1, 7]: 15 mL/min/kg
6 | COc1cc2ncnc(Oc3ccc(NC(=O)c4cn5c6c(c(N7CCC(O)CC7)c(F)cc6c4=O)CCC5C)cc3F)c2cc1OC (stereo not drawn) [TL4830031, N-(4-((6,7-dimethoxyquinazolin-4-yl)oxy)-3-fluorophenyl)-9-fluoro-8-(4-hydroxypiperidin-1-yl)-5-methyl-1-oxo-1,5,6,7-tetrahydropyrido[3,2,1-ij]quinoline-2-carboxamide] |  | 12.1 | 25900 | 24400 | 5.68 | 2390 | 20700 | 20300 | 2 | 4.26 | 4360 | 57.9 | 56.8 | 65.8 | 71.4 | 76.4 | 79.5 |  |  |  | 
